Molecular target: T1, human TRPV4 (Homo sapiens, UniProt Q9HBA0)
T1 construct: host or cells: tetracycline-inducible Flp-In T-REx 293 cells
Test: Hypotonicity-induced Ca2+ influx (Fluo-4, FDSS)
Assay type: cell-based
How it was run: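 Flp-In T-REx 293 cells with tetracycline-induced human TRPV4, loaded with Fluo-4 for 60 min at 25 °C. Compound added 5 min before hypotonic mannitol/CaCl2 solution. Ca2+ signal recorded for 4.5 min on FDSS.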

[1] = Flp-In T-REx 293 cells expressing human TRPV4, examples listed under heading 'Human IC50<50 nM'
[2] = Flp-In T-REx 293 cells stably expressing human TRPV4, compounds listed by potency bin (<10 nM Tables 96-1/96-2, <3 nM Table 97)

T1 sequence (Q9HBA0 whole entry): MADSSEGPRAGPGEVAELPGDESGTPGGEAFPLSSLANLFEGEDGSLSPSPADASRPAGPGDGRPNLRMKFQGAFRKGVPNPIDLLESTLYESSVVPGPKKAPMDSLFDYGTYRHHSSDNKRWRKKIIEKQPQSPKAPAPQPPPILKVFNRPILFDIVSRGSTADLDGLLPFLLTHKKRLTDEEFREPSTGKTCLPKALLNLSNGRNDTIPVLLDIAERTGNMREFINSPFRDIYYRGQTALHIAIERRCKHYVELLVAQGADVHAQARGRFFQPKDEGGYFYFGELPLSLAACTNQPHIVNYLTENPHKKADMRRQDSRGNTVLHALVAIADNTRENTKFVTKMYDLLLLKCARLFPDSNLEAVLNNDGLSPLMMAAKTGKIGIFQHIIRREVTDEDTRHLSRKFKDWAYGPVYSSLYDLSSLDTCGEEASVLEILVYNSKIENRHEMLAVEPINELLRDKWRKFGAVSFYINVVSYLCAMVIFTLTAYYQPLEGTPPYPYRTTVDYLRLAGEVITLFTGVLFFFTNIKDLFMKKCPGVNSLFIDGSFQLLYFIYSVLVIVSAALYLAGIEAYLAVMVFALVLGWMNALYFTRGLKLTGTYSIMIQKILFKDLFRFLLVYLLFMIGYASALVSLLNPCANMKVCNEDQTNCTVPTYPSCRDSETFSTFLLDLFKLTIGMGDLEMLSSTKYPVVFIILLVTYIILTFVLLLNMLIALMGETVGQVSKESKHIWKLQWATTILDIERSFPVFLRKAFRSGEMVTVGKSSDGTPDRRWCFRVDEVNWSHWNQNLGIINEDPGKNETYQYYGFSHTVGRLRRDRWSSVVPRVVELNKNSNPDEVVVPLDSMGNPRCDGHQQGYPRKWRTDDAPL

IC50 [1] [nM] | IC50 [2] [nM] | SMILES
< 50 | < 10 | O=C(Cc1cccc(-c2cccc(Cl)c2)c1)N1CCCc2nc(C3(c4cccc(-c5csc6ccccc56)c4)CC3)[nH]c(=O)c2C1 [17-123]
< 50 |  | CC(C)c1cncc(C2(c3nc4c(c(=O)[nH]3)CN(C(=O)C(F)(F)c3cccc(Cl)c3)CC4)CC2)c1 [22-10]
< 50 | < 10 | O=C(C(O)c1cccc(-c2ccnc(C(F)(F)F)c2)c1)N1CCc2nc(C3(c4ccccc4)CC3)[nH]c(=O)c2C1 (centres unmarked) [44-17]
< 50 | < 10 | CC(C)c1cncc(C2(c3nc4c(c(=O)[nH]3)CN(C(=O)[C@H](O)c3cccc(-c5ccnc(C(F)(F)F)c5)c3)CCC4)CC2)c1 [55-9]
< 50 |  | O=C(C(O)c1cccc(S(F)(F)(F)(F)F)c1)N1CCc2nc(C3(c4ccccc4)CC3)[nH]c(=O)c2C1 (centres unmarked) [14-31]
< 50 | < 3 | O=C([C@H](O)c1cccc(-c2cc3ccccc3o2)c1)N1CCCc2nc(C3(c4ccccc4)CC3)[nH]c(=O)c2C1 [49-25]
< 50 | < 10 | O=C(Cc1cccc(-c2cccc(C(F)(F)F)c2)c1)N1CCCc2nc(C3(c4ccccc4)CC3)[nH]c(=O)c2C1 [57-3]
< 50 | < 10 | CC(C)(C)c1cccc(-c2cccc([C@@H](O)C(=O)N3CCCc4nc(C5(c6cccc(C7CCCCC7)c6)CC5)[nH]c(=O)c4C3)c2)c1 [52-5]
< 50 |  | O=C(C(O)c1cccc(C(F)(F)F)c1)N1CCc2nc(C3(c4ccc(F)cc4)CC3)[nH]c(=O)c2C1 (centres unmarked) [3-67]
< 50 |  | O=C([C@H](O)c1cccc(C(F)(F)F)c1)N1CCc2nc(C3(c4cccs4)CC3)[nH]c(=O)c2C1 [15-18]
< 50 | < 10 | O=C([C@H](O)c1cccc(-c2cccc(Cl)c2)c1)N1CCCc2nc(C3(c4cccc(-c5csc6ccccc56)c4)CC3)[nH]c(=O)c2C1 [52-11]
< 50 |  | O=C(CCc1cccc(C(F)(F)F)c1)N1CCCc2nc(C3(c4cccc(Cl)c4)CC3)[nH]c(=O)c2C1 [17-121]
< 50 | < 3 | O=C([C@H](O)c1cccc(C(F)(F)F)c1)N1CCCc2nc(C3(c4cc(Br)cs4)CC3)[nH]c(=O)c2C1 [18-2]
< 50 | < 10 | O=C(C(O)c1cccc(-c2cccc(C(F)(F)F)c2)c1)N1CCCc2nc(C3(c4ccccc4)CC3)[nH]c(=O)c2C1 (centres unmarked) [49-8]
< 50 | < 3 | CC(C)c1cccc(C2(c3nc4c(c(=O)[nH]3)CN(C(=O)[C@H](O)c3cccc(C5=CCCC5)c3)CCC4)CC2)c1 [51-7]
< 50 |  | O=C([C@H](O)c1cccc(C(F)(F)F)c1)N1CCCc2nc(C3(c4cncc(Br)c4)CC3)[nH]c(=O)c2C1 [19-6]
< 50 |  | O=C(C(F)c1ccccc1)N1CCc2nc(C3(c4ccccc4)CC3)[nH]c(=O)c2C1 (centres unmarked) [2-21]
< 50 |  | O=C([C@H](O)c1cccc(Cl)c1)N1CCc2nc(C3(c4ccc(Cl)cc4)CC3)[nH]c(=O)c2C1 [3-21]
< 50 |  | CC(C)c1cncc(C2(c3nc4c(c(=O)[nH]3)CN(C(=O)C(O)c3cccc(C(F)(F)F)c3F)CCC4)CC2)c1 (centres unmarked) [19-7]

IC50 [1] [nM] | IC50 [2] [nM] | SMILES
< 50 | < 10 | O=C([C@H](O)c1cccc(-c2cc(Cl)cc(Cl)c2)c1)N1CCc2nc(C3(c4ccccc4)CC3)[nH]c(=O)c2C1 [44-100]
< 50 | < 3 | O=C(C(O)c1cccc(-c2cccc(OC(F)(F)F)c2)c1)N1CCCc2nc(C3(c4cncc(-c5ccccc5)c4)CC3)[nH]c(=O)c2C1 (centres unmarked) [56-1]
< 50 | < 3 | O=C(C(O)c1cccc(Cl)c1F)N1CCCc2nc(C3(c4cncc(-c5ccccc5)c4)CC3)[nH]c(=O)c2C1 (centres unmarked) [19-11]
< 50 |  | O=C(N1CCc2nc(C3(c4cccc(Cl)c4)CC3)[nH]c(=O)c2C1)C(F)(F)c1cccc(C(F)(F)F)c1 [20-10]
< 50 |  | O=C(C(O)c1cccc(C2CC2)c1)N1CCc2nc(C3(c4cccc(Cl)c4)CC3)[nH]c(=O)c2C1 (centres unmarked) [14-15]
< 50 | < 10 | O=C([C@H](O)c1cccc(-c2cccc(F)c2)c1)N1CCCc2nc(C3(c4cccs4)CC3)[nH]c(=O)c2C1 [53-5]
< 50 |  | CN(C)Cc1cccc(-c2cccc(C3(c4nc5c(c(=O)[nH]4)CN(C(=O)[C@H](O)c4cccc(C(F)(F)F)c4)CCC5)CC3)c2)c1 [42-36]
< 50 | < 3 | O=C([C@H](O)c1cccc(C(F)(F)F)c1)N1CCc2nc(C3(c4cc(C5CCCCCC5)cs4)CC3)[nH]c(=O)c2C1 [15-3]
< 50 | < 10 | O=C([C@H](O)c1cccc(C(F)(F)F)c1)N1CCCc2nc(C3(c4cc(C(=O)N(C5CCCCC5)C5CCCCC5)cs4)CC3)[nH]c(=O)c2C1 [59-18]
< 50 | < 3 | Cn1c(=O)oc2cc(-c3cccc(C4(c5nc6c(c(=O)[nH]5)CN(C(=O)[C@H](O)c5cccc(C(F)(F)F)c5)CCC6)CC4)c3)ccc21 [42-14]
< 50 | < 10 | Cc1cc(Cl)cc(-c2cccc([C@@H](O)C(=O)N3CCc4nc(C5(c6ccccc6)CC5)[nH]c(=O)c4C3)c2)c1 [44-96]
< 50 |  | N#Cc1ccc(-c2cccc(CC(=O)N3CCc4nc(C5(c6cccc(Cl)c6)CC5)[nH]c(=O)c4C3)c2)cc1 [14-115]
< 50 | < 10 | COCCn1cc(-c2cccc(C3(c4nc5c(c(=O)[nH]4)CN(C(=O)[C@H](O)c4cccc(C(F)(F)F)c4)CCC5)CC3)c2)cn1 [42-23]
< 50 | < 3 | N#Cc1cccc(-c2cccc([C@@H](O)C(=O)N3CCCc4nc(C5(c6cccc(Cl)c6)CC5)[nH]c(=O)c4C3)c2)c1 [50-25]
< 50 | < 3 | O=C([C@H](O)c1cccc(-c2ccc(Cl)c(C(F)(F)F)c2)c1)N1CCc2nc(C3(c4ccccc4)CC3)[nH]c(=O)c2C1 [44-102]
< 50 |  | CC(=O)N1CCC(c2csc(C3(c4nc5c(c(=O)[nH]4)CN(C(=O)[C@H](O)c4cccc(C(F)(F)F)c4)CCC5)CC3)c2)CC1 [30-13]
< 50 | < 10 | CC(C)c1cccc(C2(c3nc4c(c(=O)[nH]3)CN(C(=O)Cc3cccc(-c5cccc(C(F)(F)F)c5)c3)CC4)CC2)c1 [27-6]
< 50 | < 3 | CC1CCN(c2ccc(-c3cccc(C4(c5nc6c(c(=O)[nH]5)CN(C(=O)[C@H](O)c5cccc(C(F)(F)F)c5)CCC6)CC4)c3)cn2)CC1 [42-10]
< 50 | < 10 | O=C([C@H](O)c1cccc(C(F)(F)F)c1)N1CCCc2nc(C3(c4cccc(C5CCCCC5)c4)CC3)[nH]c(=O)c2C1 [17-25]

IC50 [1] [nM] | IC50 [2] [nM] | SMILES
< 50 |  | O=C(C(O)c1cccc(-c2cncc(C(F)(F)F)c2)c1)N1CCc2nc(C3(c4ccccc4)CC3)[nH]c(=O)c2C1 (centres unmarked) [44-19]
< 50 |  | O=C([C@H](O)c1cccc(-c2ccc3ncccc3c2)c1)N1CCc2nc(C3(c4ccccc4)CC3)[nH]c(=O)c2C1 [44-88]
< 50 |  | O=C([C@H](O)c1cccc(-c2ccccc2OCc2ccccc2)c1)N1CCc2nc(C3(c4ccccc4)CC3)[nH]c(=O)c2C1 [44-111]
< 50 |  | O=C(C(O)c1cccc(C(F)(F)F)c1)N1CCc2nc(C3(c4ccccc4)CC3)[nH]c(=O)c2C1 (centres unmarked) [3-66]
< 50 | < 3 | O=C([C@H](O)c1cccc(C(F)(F)F)c1)N1CCCc2nc(C3(c4cncc(C5CCCCC5)c4)CC3)[nH]c(=O)c2C1 [19-1]
< 50 | < 10 | O=C([C@H](O)c1cccc(C(F)(F)F)c1)N1CCCc2nc(C3(c4cccc(C5=CCN(CC(F)(F)F)CC5)c4)CC3)[nH]c(=O)c2C1 [42-81]
< 50 | < 10 | O=C([C@H](O)c1cccc(C(F)(F)F)c1)N1CCCc2nc(C3(c4cccc(C5CCOCC5)c4)CC3)[nH]c(=O)c2C1 [31-7]
< 50 |  | O=C(C(O)c1cccc(-c2cccc(F)c2)c1)N1CCc2nc(C3(c4ccccc4)CC3)[nH]c(=O)c2C1 (centres unmarked) [44-47]
< 50 | < 3 | O=C([C@H](O)c1cccc(C(F)(F)F)c1)N1CCCc2nc(C3(c4cc(C5CCCC5)cs4)CC3)[nH]c(=O)c2C1 [30-1]
< 50 | < 3 | O=C([C@H](O)c1cccc(-c2ccnc(C(F)(F)F)c2)c1)N1CCc2nc(C3(c4ccccc4)CC3)[nH]c(=O)c2C1 [44-79]
< 50 | < 3 | N#Cc1cc(Cl)cc(-c2cccc([C@@H](O)C(=O)N3CCc4nc(C5(c6ccccc6)CC5)[nH]c(=O)c4C3)c2)c1 [44-110]
< 50 | < 10 | O=C([C@H](O)c1cccc(C(F)(F)F)c1)N1CCCc2nc(C3(c4cccc(Oc5ccccc5)c4)CC3)[nH]c(=O)c2C1 [17-72]
< 50 | < 10 | O=C(Cc1ccccc1)N1CCC(c2cccc(C3(c4nc5c(c(=O)[nH]4)CN(C(=O)[C@H](O)c4cccc(C(F)(F)F)c4)CCC5)CC3)c2)CC1 [31-9]
< 50 | < 10 | O=C([C@H](O)c1cccc(-c2cccc(OCc3ccccc3)c2)c1)N1CCCc2nc(C3(c4cccc(Cl)c4)CC3)[nH]c(=O)c2C1 [50-12]
< 50 | < 3 | O=C([C@H](O)c1cccc(-c2ccc(OC(F)(F)F)cc2)c1)N1CCCc2nc(C3(c4ccccc4)CC3)[nH]c(=O)c2C1 [49-33]
< 50 | < 3 | Cc1cc(-c2cccc([C@@H](O)C(=O)N3CCCc4nc(C5(c6ccccc6)CC5)[nH]c(=O)c4C3)c2)ccc1Cl [49-51]
< 50 | < 10 | CC(C)(C)CCc1csc(C2(c3nc4c(c(=O)[nH]3)CN(C(=O)[C@H](O)c3cccc(C(F)(F)F)c3)CCC4)CC2)c1 [30-4]
< 50 | < 3 | O=C([C@H](O)c1cccc(-c2cccc(C(F)(F)F)n2)c1)N1CCc2nc(C3(c4cccc(Cl)c4)CC3)[nH]c(=O)c2C1 [45-6]
< 50 | < 10 | O=C([C@H](O)c1cccc(-c2cccc(C(F)(F)F)c2)c1)N1CCCc2c(nc(C3(c4ccccc4)CC3)[nH]c2=O)C1 [49-54]

Reference: patent publication US12673946B2, “Pyrimidin-4(3H)-one derivatives as TRPV4 antagonists” (RaQualia Pharma Inc., priority 2020, dated 2026)
